What was measured:
[1] = test system: IR E697A; experiment: Auto-phosphorylation of IR in 293FT cells expressing IR E697A; type: cell-based, human
Method: (§1) For the activation assay, the short isoform of human IR in pCS2-MYC was used as described previously[20],[49]. Plasmid transfections into 293FT cells were performed with Lipofectamin^TM 2000 (Invitrogen).
(§2) The cells were incubated with the lysis buffer B [50 mM Hepes pH 7.4, 150 mM NaCl, 10% Glycerol, 1% Triton X-100, 1 mM EDTA, 100 mM sodium fluoride, 2 mM sodium orthovanadate, 20 mM sodium pyrophosphate, 0.5 mM dithiothreitol (DTT), 2 mM phenylmethylsulfonyl fluoride (PMSF)] supplemented with cOmplete Protease Inhibitor Cocktail (Roche), PhosSTOP (Sigma), and 25 U/ml turbo nuclease (Accelagen) on ice for 1 h. After centrifuging at 20,817×g at 4 °C for 10 min, the concentrations of cell lysate were measured using Micro BCA Protein Assay Kit (Thermo Scientific). About 50–60 μg total proteins were analyzed by SDS-PAGE and quantitative Western blotting. […] For quantitative western blots, anti-rabbit immunoglobulin G (IgG) (H + L) (WB, 1:5000; Dylight 800 conjugates, Cat. #5151) and anti-mouse IgG (H + L) (WB, 1:5000; Dylight 680 conjugates, Cat. #5470) (Cell Signaling) were used as secondary antibodies. […]

[2] = test system: IR F64A; experiment: Auto-phosphorylation of IR in 293FT cells expressing IR F64A; type: cell-based, human; details: 10 nM, 10 min
Method: as §1, §2

[3] = test system: SREBP1; experiment: Nuclear translocation of SREBP1 in primary mouse hepatocytes; type: cell-based; details: 100 nM, 30 min
Method: (§3) Primary hepatocytes were isolated from 2-month-old male mice with a standard two-step collagenase perfusion procedure as described earlier with some modifications[24],[48],[49]. […] After 1–2 s upon the appearance of white spots in the liver, we cut the portal vein with scissors to wash out blood, and then the liver was perfused with 30 ml of Liver Digest Medium (Thermo Scientific, Cat. #17703034). The dissected liver was gently washed with low-glucose DMEM and transferred to a sterile culture dish containing 15 ml Liver Digest Medium. The isolated liver cells were filtered through the 70 μm cell strainer into a 50 ml tube. After centrifuging at 50×g for 5 min at 4 °C, cells were washed with cold low-glucose DMEM three times. […] After 2 h, the medium was changed to serum-free low-glucose DMEM.
Primary hepatocytes were described in the primary hepatocyte isolation section. […] Cells were fixed with 4% paraformaldehyde for 10 min. The fixed cells were incubated with PBS for 30 min and 3% BSA in PBS with 0.1% Triton X-100 (0.1% PBST) for 1 h, and then treated with anti-SREBP1 antibodies (20B12, Millipore, Cat. #MABS1987, 1:200) in 3% BSA in 0.1% PBST at 4 °C overnight. After being washed, cells were incubated with secondary antibodies (Alexa Fluor 488 goat anti-rabbit, Invitrogen, Cat. #A11008, 1:200) for 1 h. […]

[4] = test system: IR; experiment: IR signaling (pY IR, pAKT, pERK) in primary mouse hepatocytes (Fig. S9); type: cell-based
Method: as §3, §2

[5] = test system: IR R345A; experiment: Auto-phosphorylation of IR in 293FT cells expressing IR R345A; type: cell-based, human
Method: as §1, §2

[6] = test system: IR-D707A; experiment: IR signaling (pY IR, pAKT, pERK) in IR-D707A MEFs; type: cell-based, mouse
Method: IR^F/F mice (Jackson #006955[71]) were crossed with CAG-CRE/ERT mice (Jackson #004682) to generate IR^F/F; CRE-ERT mice. The IR^F/F; CRE-ERT mice were backcrossed nine generations to C57BL/6 (Jackson #000664). The MEFs from IR^F/F; CRE-ERT mice were isolated as described earlier with some modifications. E14.5 embryos were minced with sterile scalpels and incubated with 0.25% trypsin-EDTA for 10 min at 37 °C and a 5% CO2 incubator. Fresh 0.25% trypsin-EDTA was added. After 10 min incubation, cells were put into fresh DMEM containing supplemented 10% (v/v) FBS, 2 mM L-glutamine, 55 μM β-mercaptoethanol, and 1% penicillin/streptomycin, and then centrifuged at 290×g for 5 min. After the supernatant was removed, the cells were resuspended in the DMEM and incubated at 37 °C and 5% CO2 incubator. The medium was changed the next day to remove debris and floating cells.
Viral supernatants were collected at 2 days and 3 days after transfection, concentrated with a concentrator, and added to IR^F/F; CRE-ERT MEFs with 4 μg/ml of polybrene. Cells were selected with 2 μg/ml of puromycin 2 days after infection.
as §1
The cells were incubated with the lysis buffer B [50 mM Hepes pH 7.4, 150 mM NaCl, 10% Glycerol, 1% Triton X-100, 1 mM EDTA, 100 mM sodium fluoride, 2 mM sodium orthovanadate, 20 mM sodium pyrophosphate, 0.5 mM dithiothreitol (DTT), 2 mM phenylmethylsulfonyl fluoride (PMSF)] supplemented with cOmplete Protease Inhibitor Cocktail (Roche), PhosSTOP (Sigma), and 25 U/ml turbo nuclease (Accelagen) on ice for 1 h. After centrifuging at 20,817×g at 4 °C for 10 min, the concentrations of cell lysate were measured using Micro BCA Protein Assay Kit (Thermo Scientific). About 50–60 μg total proteins were analyzed by SDS-PAGE and quantitative Western blotting. The following antibodies were purchased from commercial sources: Anti-IR-pY1150/1151 (WB, 1:1000; 19H6; labeled as pY IR, Cat. #3024), anti-AKT (WB, 1:1000; 40D4, Cat. #2920), anti-pS473 AKT (WB, 1:1000; D9E, Cat. #4060), anti-ERK1/2 (WB, 1:1000; L34F12, Cat. #4696), anti-pERK1/2 (WB, […]; 197G2, Cat. #4377), anti-IRS1-pS616 (WB, 1:1000; C15H5, Cell Signaling, Cat. #3203); anti-IRS1 (WB, 1:1000; A301-158A, Bethyl Laboratory); anti-IR (WB, 1:500, CT-3, Santa Cruz; labeled as IR for primary hepatocytes and MEFs, Cat. #sc-57342); anti-IR (WB, 1:1000; EPR23566-103; labeled as IR for Fig. S10, ab278100, Abcam); anti-Myc (WB, 1:2000; 9E10, Cat. #11667149001, Roche; labeled as IR for 293FT cells). For quantitative western blots, anti-rabbit immunoglobulin G (IgG) (H + L) (WB, 1:5000; Dylight 800 conjugates, Cat. #5151) and anti-mouse IgG (H + L) (WB, 1:5000; Dylight 680 conjugates, Cat. #5470) (Cell Signaling) were used as secondary antibodies. The membranes were scanned with the Odyssey Infrared Imaging System (Li-COR, Lincoln, NE).

[7] = test system: IR R14A; experiment: Auto-phosphorylation of IR in 293FT cells expressing IR R14A; type: cell-based, human
Method: as §1, §2

[8] = test system: IR F701A/F705A; experiment: Auto-phosphorylation of IR in 293FT cells expressing IR F701A/F705A; type: cell-based, human
Method: as §1, §2

[9] = test system: IR D707A; experiment: Auto-phosphorylation of IR in 293FT cells expressing IR D707A; type: cell-based, human
Method: as §1, §2

[10] = test system: IR K484E/L552A; experiment: Auto-phosphorylation of IR in 293FT cells expressing IR K484E/L552A; type: cell-based, human; details: 10 nM, 10 min
Method: as §1, §2

[11] = test system: IR F96A; experiment: Auto-phosphorylation of IR in 293FT cells expressing IR F96A; type: cell-based, human; details: 10 nM, 10 min
Method: as §1, §2

insulin: native IR ligand used as comparator; Humulin in the in vivo tests
IR activation [1]: largely diminished IR activation by insulin
IR activation [2]: defective insulin-dependent activation
nuclear translocation of SREBP1 [3]: stimulated to the same level by insulin and S597
phosphorylation of AKT, primary hepatocytes [4]: increased the levels of pY IR, pAKT, and pERK similarly
phosphorylation of ERK, primary hepatocytes [4]: increased the levels of pY IR, pAKT, and pERK similarly
phosphorylation of IR, primary hepatocytes [4]: increased the levels of pY IR, pAKT, and pERK similarly
IR activation [5]: largely diminished IR activation by insulin
phosphorylation of AKT [6]: greatly reduced
phosphorylation of ERK [6]: greatly reduced
phosphorylation of IR [6]: remarkedly reduced
pAKT ([6]; high concentration of insulin): significantly increased pAKT and pERK
pERK ([6]; high concentration of insulin): significantly increased pAKT and pERK
IR activation [7]: reduced insulin-dependent IR activation
IR activation [8]: reduced insulin-dependent IR activation
IR activation [9]: reduced insulin-dependent IR activation
IR activation [10]: could not be activated efficiently
IR activation [11]: defective insulin-dependent activation

Source: publication PMC9508239 (Nature Communications, 2022)
